Data: paper PMC11078216, “Discovery of potent and selective activity-based probes (ABPs) for the deubiquitinating enzyme USP30” (RSC Chemical Biology, 2024)

Biological target: T1, USP30 (Homo sapiens, UniProt Q70CQ3)
T1 construct: Catalog #E-582 residues 57-517; purchased E-582
T1 sequence (Q70CQ3 57-517): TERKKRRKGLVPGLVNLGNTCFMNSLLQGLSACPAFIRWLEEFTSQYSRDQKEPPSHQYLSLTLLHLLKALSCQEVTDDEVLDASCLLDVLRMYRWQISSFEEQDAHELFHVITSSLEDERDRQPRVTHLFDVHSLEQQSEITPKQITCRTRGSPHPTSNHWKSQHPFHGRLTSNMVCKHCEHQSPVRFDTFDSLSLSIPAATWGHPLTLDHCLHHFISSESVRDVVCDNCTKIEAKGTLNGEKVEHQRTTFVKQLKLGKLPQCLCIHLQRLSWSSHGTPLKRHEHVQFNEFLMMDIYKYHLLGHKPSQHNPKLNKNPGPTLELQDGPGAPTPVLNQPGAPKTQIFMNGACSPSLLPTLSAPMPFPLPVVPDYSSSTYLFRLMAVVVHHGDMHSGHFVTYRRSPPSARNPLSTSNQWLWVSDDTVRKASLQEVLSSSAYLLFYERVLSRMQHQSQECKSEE
Assay: USP30 biochemical IC50 fluorescence polarisation assay using Ub-Lys(TAMRA)-Gly
Conditions: 30 min incubation, USP30 5 nM, Ub-Lys(TAMRA)-Gly 100 nM; read-out: IC50 against USP30
Method: We first confirmed biochemical inhibition of USP30 with our probes in a fluorescence polarisation (FP) assay using a TAMRA labelled Lys-Gly dipeptide linked to ubiquitin via an isopeptide bond (Ub-Lys(TAMRA)-Gly). USP30 (5 nM) was incubated across a concentration series of test compound for 30 min, followed by FP measurement after addition of Ub-Lys(TAMRA)-Gly (100 nM).
4. Biochemical and biological methods and proteomics
1) Biochemical USP30 fluorescence polarisation (FP) assay using Ub-Lys(TAMRA)-Gly a. USP30 biochemical IC50 assay
Reactions were performed in triplicate in black 384 well plates (Greiner #784076) in a final reaction volume of 21 μL. Compound dilutions were prepared at 21× final concentration (2000 nM for a final concentration of 100 nM) in 50% DMSO/water. USP30 was diluted in reaction buffer A (40 mM Tris, pH 7.5, 0.005% Tween 20, 0.5 mg/ml BSA, 5 mM betamercaptoethanol) and 10 μL of diluted 10.5 nM USP30 was added to the compound (final concentration 5 nM). Enzyme and compound were incubated for 30 min at room temperature. Reactions were initiated by the addition of 10 ul 200 nM (final concentration 100 nM) of TAMRA labeled peptide linked to ubiquitin via an iso-peptide bond (Ub-Lys(TAMRA)-Gly, UbiQ-012). Reactions were read immediately after substrate addition using a Pherastar Plus (BMG Labtech; λEx 531 nm, λEm 579 nm). IC50 values were determined by plotting percentage USP30 activity against compound concentration and fitting a four -parameter dose-response curve (Graphpad Prism 5.03). […]
Kinetic progress curves were fitted to equation y = (vi/kobs) (1 − exp(−kobs*x)) to determine the kobs value (for first 30 min data). The kobs value was then plotted against the inhibitor concentration to […]

Q: Which IC50 does the source give for `N#CN1CC[C@@H](NC(=O)c2cc(-c3ccccc3Oc3ccccc3)n[nH]2)C1` [compound 3, reference compound] here?
A: Its IC50 is 4.8 nM.

Q: Which IC50 does the source give for `C#Cc1cccc(-c2cc(NC(=O)CC3CCN(C#N)C3)on2)c1` (stereo not shown) [IMP-2587] here?
A: The IC50 was 12.6 nM.

Q: `N#CN1CC[C@@H](NC(=O)c2cc(-c3ccccc3Oc3ccc(N=[N+]=[N-])cc3)n[nH]2)C1` [IMP-2586] was tested. Which IC50 did it give?
A: The IC50 was 16.3 nM.

Q: With `N#CN1CC[C@H](CC(=O)Nc2cc(-c3cccc(Cl)c3)no2)C1` [compound 1, reference compound] as the compound, how does the IC50 read?
A: The IC50 was 18.3 nM.
